Test results from PubChem BioAssay AID1288 (Columbia University Molecular Screening Center, 2008).
Active and inactive are the calls of the source. The rule behind the calls is not given here.

assay: inhibitors of TNFa-induced E-selectin expression, confirmation, imaging, retest plus dose response, cell count (AID 1288); settings: human endothelial cells, TNFa-induced E-selectin, imaging; at 2 µM; active compounds read high;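 note: 0% = stimulated vehicle wells and 100% = unstimulated vehicle wells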

| SMILES | inhibition |
| --- | --- |
| COc1ccc(-n2c(C)c3c(OC)cccc(=O)c3c2C)cc1 | -2.64% (inactive) |
| COc1ccccc1C(=O)NCCN1CCN(C(=O)c2ccccc2OC)CC1 | 9.74% (inactive) |
| Cc1ccc(/C=N/n2c(=O)c(C(C)(C)C)nn3cnnc23)cc1 | 6.53% (inactive) |
| CCn1c(=O)cc(SCC(=O)N2CCN(C3CCCCC3)CC2)c2ccccc21 | 16.9% (inactive) |
| CCS(=O)(=O)N1CCCC(C(=O)NCc2cccc(OC)c2)C1 (configuration not stated) | 12.7% (inactive) |
| CCOC(=O)C(C)Oc1cccc2c(=O)n(CC(=O)Nc3cccc(OC)c3)ccc12 (configuration not stated) | 22.4% (inactive) |
| O=C(CN(C(=O)CCC(=O)Nc1ccccn1)c1ccc2c(c1)OCO2)NCc1ccco1 | 36.3% (inactive) |
| COc1ccc(N(CC(=O)Nc2ccc3c(c2)OCO3)S(C)(=O)=O)c(OC)c1 | -1.1% (inactive) |
| CC(C)C(c1nnnn1Cc1ccc2c(c1)OCO2)N1CCN(C)CC1 (configuration not stated) | 6.53% (inactive) |
| O=C(COC(=O)CCc1ccc(S(=O)(=O)N2CCOCC2)cc1)NC1CCCC1 | 2.85% (inactive) |
| CS(=O)(=O)C1=NSC2=NC(=O)/C(=C\c3cccn3-c3ccc(Cl)cc3)C(=N)N21 | 17.3% (inactive) |
| O=C(Cn1ncc2c(=O)oc3ccccc3c21)N1CCc2ccccc2C1 | 9.96% (inactive) |
| Cc1[nH]nc2c1C1(C(=O)N(Cc3ccc(Cl)cc3)c3ccccc31)C(C#N)=C(N)O2 (configuration not stated) | 10.5% (inactive) |
| COC(=O)C(NC(=O)c1ccccc1)c1ccccc1 (configuration not stated) | 5.65% (inactive) |
| C/C(=N\NC(=O)CC1N=C(Cc2ccccc2)NNC1=O)c1ccc(C)cc1 (configuration not stated) | 3.58% (inactive) |
| CC(C)Cn1cnc2c1c(=O)n(CC(=O)Nc1ccc3c(c1)OCO3)c(=O)n2Cc1ccccc1 | 14.6% (inactive) |
| NC(=O)NOCc1ccccc1 | -1.04% (inactive) |
| O=C(O)CSC1c2ccccc2C(=O)N1Cc1ccccc1 (configuration not stated) | 2.25% (inactive) |
| CCN1C(=O)c2cccc3c(NC(=O)c4cccc(N5C(=O)CCC5=O)c4)ccc1c23 | 0.82% (inactive) |
| CCOc1cccc(C(=O)NC(=S)Nc2ccc(N3CCCC3)cc2)c1 | 10.5% (inactive) |
| COc1cc(C(=O)Nc2ccc3c(c2)C(=O)c2ccccc2C3=O)cc(OC)c1OC | 12.8% (inactive) |
| CO/C([O-])=N/c1c[n+](-c2ccc(Cl)cc2)no1 | 26.1% (inactive) |
| O=C(CCl)N1N=C(c2ccco2)CC1c1cccs1 (configuration not stated) | 26.9% (inactive) |
| NC(=O)c1ccc(-c2ccc(Br)cc2)o1 | 36.5% (inactive) |
| O=C(O)COc1ccc(/C=N/n2cnc3scc(-c4cccs4)c3c2=O)cc1 | 5.08% (inactive) |

| SMILES | inhibition |
| --- | --- |
| COc1ccc(CCn2c(=S)[nH]c3cc(C(=O)NCc4ccco4)ccc3c2=O)cc1OC | 11% (inactive) |
| CCCc1c(O)c2ccccc2[nH]c1=O | 0.12% (inactive) |
| Cc1cccc(N2CCN(c3cccc(C)c3)C2c2cccnc2)c1 | 5.98% (inactive) |
| COc1ccc(OC)c(CCNC(=O)CSc2ccsc2[N+](=O)[O-])c1 | 4.97% (inactive) |
| O=C(c1ccccc1F)N1CCN(c2ccccc2F)CC1 | 27.8% (inactive) |
| CCOC(=O)C1C(=O)CC(C)(O)C(C(=O)OCC)C1c1ccccc1 (configuration not stated) | -2.22% (inactive) |
| CCOc1cc(N2CCOCC2)c(OCC)cc1NS(=O)(=O)c1ccc(Cl)s1 | 6.76% (inactive) |
| Cc1noc(C)c1S(=O)(=O)N1CCC(C(=O)N2CCN(Cc3ccc4c(c3)OCO4)CC2)CC1 | 7.72% (inactive) |
| O=C(/C=C/c1ccccc1)Nc1ncn[nH]1 | 5.62% (inactive) |
| CCC(=O)Nc1c(-c2ccc(OC)cc2)c(=O)c2ccccc2n1C | 6.09% (inactive) |
| Cc1cc(C)n2nc(C(=O)N(C)C(c3ccccc3)c3ccccc3)nc2n1 | 7.77% (inactive) |
| Cc1noc(C)c1S(=O)(=O)Nc1ccc(C(=O)NC2CCCCC2C)cc1 (configuration not stated) | 22.8% (inactive) |
| CCOC(=O)Cc1c(C)nc2c(-c3ccccc3)c[nH]n2c1=O | 0.71% (inactive) |
| Cc1nnc(SCC(=O)N(C)c2ccccc2)n1Cc1ccccc1 | 1.26% (inactive) |
| CCN(CC)c1ccc(NC(=O)COC(=O)/C=C/c2nc3ccccc3s2)cc1 | 15.5% (inactive) |
| CN(C)S(=O)(=O)c1ccc(NS(=O)(=O)/C=C/c2ccccc2)cc1 | 0.79% (inactive) |
| CCOC(=O)CSc1nc2cc(OC)ccc2cc1C#N | 11.6% (inactive) |
| CN1CCCN(S(=O)(=O)c2cccc(Cl)c2Cl)CC1 | -0.57% (inactive) |
| CCOCc1nnc(NC(=O)CCc2ccccc2)s1 | 9.8% (inactive) |
| CC1=C(C(=O)N2CCC3(CC2)OCCO3)C2(CCC(C)CC2)OC1=O (configuration not stated) | 6.34% (inactive) |
| CSc1ccc(/C=N/NC(=O)CN2CCN(Cc3ccc(C)cc3)CC2)cc1 | -1.62% (inactive) |
| COc1cccc(-c2cc3c(=O)n(-c4ccccc4)c(=S)[nH]c3s2)c1 | 24.4% (inactive) |
| O=C(Cn1nnc(-c2ccc(Cl)cc2)n1)NC1CCN(Cc2ccccc2)CC1 | 11.8% (inactive) |
| COc1ccc(-c2ccc(C(=S)N3CCN(C(C)=O)CC3)o2)cc1 | 3.01% (inactive) |
| CN(C)c1ccc(NC(=O)COC(=O)Cn2nnc3ccccc32)cc1 | 0.53% (inactive) |

| SMILES | inhibition |
| --- | --- |
| Cn1c(SCc2ccc(C#N)cc2)nnc1-c1cccc(Cl)c1 | 7.7% (inactive) |
| CCOC(=O)N1CCC(N(CCOC)C(=O)Nc2ccc(Cl)cc2)CC1 | 2.12% (inactive) |
| COc1ccc(Br)cc1CN(C)CC(=O)Nc1cc(Cl)ccc1Cl | -1.79% (inactive) |
| CCCCN1C(=O)C2C3C=CC(C2C1=O)C1C2C(=O)N(CCCC)C(=O)C2C31 (configuration not stated) | 28.4% (inactive) |
| CC(Sc1nnc(-c2cccs2)n1Cc1ccccc1)C(=O)NCc1ccc2c(c1)OCO2 (configuration not stated) | 1.65% (inactive) |
| COc1cccc(/C=C/C(=O)OCC(=O)Nc2ccc(Cl)c(S(=O)(=O)N(C)C)c2)c1 | 2.19% (inactive) |
| COCCN(C(=O)CCC(=O)Nc1ccccn1)C(C(=O)NC1CCCC1)c1ccc(OC)cc1 (configuration not stated) | 2.57% (inactive) |
| C/C(=N\NC(=O)c1cccc(C)c1)c1ccc(N2CCOCC2)cc1 | 4.53% (inactive) |
| CN(C(=S)Nc1ccc(Oc2ccccc2)cc1)c1ccc(O)cc1 | 12.6% (inactive) |
| CC(C)(C)c1cc(OC(=O)c2ccncc2)ccc1O | 7.95% (inactive) |
| CCOC(=O)c1cnc2ccc(C)cc2c1Nc1ccc(N2CCOCC2)cc1 | 5.86% (inactive) |
| Cc1cc(=O)oc2cc(OCC(=O)OCC(=O)NCc3ccc4c(c3)OCO4)ccc12 | 22.5% (inactive) |
| CC(/C=C/c1ccco1)=N\NC(=O)c1cc(C)[nH]n1 | 12% (inactive) |
| COC(=O)c1cnc(SCc2ccc(C)cc2)n1C | 15.2% (inactive) |
| O=C(CSc1nnc(-c2cc(-c3cccs3)nc3ccccc23)o1)NC1CCCCC1 | 5.57% (inactive) |
| CC1(C)NC(=O)N(CC(O)COc2cc3ccccc3cc2C(=O)N2CCCCC2)C1=O (configuration not stated) | 7% (inactive) |
| COc1ccccc1C1/C(=C(/O)c2ccc(C)cc2)C(=O)C(=O)N1CCN1CCOCC1 (configuration not stated) | 6.7% (inactive) |
| CCCOc1ccc(C(=O)NCC(c2cccs2)N(C)C)cc1 (configuration not stated) | -0.69% (inactive) |
| c1ccc(-n2c(-c3ccncc3)nnc2N2CCOCC2)cc1 | 5.7% (inactive) |
| CC1(C)CC(=O)C2=C(C1)NCN(Cc1ccc3c(c1)OCO3)C2 | 3.18% (inactive) |
| O=C(CSc1ncccn1)NCc1ccccc1Cl | 32.9% (inactive) |
| CCOC(=O)/C(C#N)=C1/C=Cc2ccccc2N1CC | 10.7% (inactive) |
| Cn1cccc1/C=C1\C(=O)NC(=O)N(CCC2=CCCCC2)C1=O | 6.01% (inactive) |
| Cc1cccc(NC(=O)CCSc2nc(C)cc(C)n2)c1 | 4.57% (inactive) |
| O=C(NN=C1CCN(Cc2ccccc2)CC1)c1ccccc1 | 9.36% (inactive) |

| SMILES | inhibition |
| --- | --- |
| O=C(COc1ccc(/C=N/NC(=O)C(=O)N2CCCCCC2)cc1)Nc1ccccc1Cl | 8.09% (inactive) |
| Cc1ccc(NC(=O)N2CCC(C(=O)NCCC3=CCCCC3)CC2)cc1 | 11.6% (inactive) |
| COC(=O)c1cc2oc(C)cc2n1CC(=O)N1CCCc2ccccc21 | 9.68% (inactive) |
| CCSc1nnc(-c2cccs2)o1 | 6.52% (inactive) |
| NC(=S)NNc1cccc(Cl)c1 | 6.61% (inactive) |
| C=CCN1C(c2cccc(C(F)(F)F)c2)=CS/C1=C(/C#N)c1nnc(N2CCOCC2)n1-c1ccccc1 | 31.5% (inactive) |
| Cc1ccc(S(=O)(=O)N2CCN(C(=O)C3COc4ccccc4O3)CC2)cc1C (configuration not stated) | -0.52% (inactive) |
| CCN(CC)S(=O)(=O)c1ccc(NC(=O)CSc2nnc(-c3ccc(F)cc3)o2)cc1 | 1.25% (inactive) |
| COc1ccc(-n2nc3c(c2NC(=O)c2cc(Br)ccc2Cl)CS(=O)C3)cc1 (configuration not stated) | -1.7% (inactive) |
| CNC(=S)N=Nc1c(O)[nH]c2ccc(C(C)C)cc12 | 9.53% (inactive) |
| CCOc1ccc(C)cc1-n1nc2ccccc2n1 | 34.6% (inactive) |
| C/C=C/Cn1c(N2CCCCCC2)nc2c1c(=O)[nH]c(=O)n2C | 17.1% (inactive) |
| CC(C)n1c(SCC(=O)Nc2nc3c(s2)CCCC3)nc2c1c(=O)n(C)c(=O)n2C | 3.36% (inactive) |
| Cc1ccc(NC(=O)CSc2nc3ccccc3c3nc(CCc4c(C)n[nH]c4C)nn23)cc1F | 47.2% (inactive) |
| CCn1c(SCc2nc(CC(=O)Nc3ccccc3OC)no2)nnc1-c1cccs1 | 7.75% (inactive) |
| COc1ccc(OC)c(CN2CCN(C(=O)COc3cccc(C)c3)CC2)c1 | 9.14% (inactive) |
| Cc1ccc(Cn2ncc3c(N4CCN(C5CCCC5)CC4)ncnc32)cc1 | 3.96% (inactive) |
| Cc1ccc(S(=O)(=O)Nc2ccc(NC(=O)Nc3ccc(F)cc3F)cc2)cc1 | 37.3% (inactive) |
| CN1C(=O)S/C(=C\c2ccccc2OCc2ccc(C(=O)O)cc2)C1=O | 15.9% (inactive) |
| O=c1[nH]c2cc(NCCO)c([N+](=O)[O-])cc2[nH]1 | 15.2% (inactive) |
| COc1ccc(OC)c(S(=O)(=O)N(C)CC(=O)Nc2ccc3c(c2)OCO3)c1 | 5.06% (inactive) |
| CCOc1ccc(OCC)c(NC(=O)CN2CCN(c3cccc(C)c3)CC2)c1 | -3.01% (inactive) |
